This passage reports chromatographic logP results from patent publication US9167821B2 (priority 2009, dated 2015).

The term chromatographic logP denotes a lipophilicity value derived from retention on a column. Read a high chromatographic logP as a more lipophilic compound.

One series in a line: physchem. To be noted: pH 2.7, log P (HCOOH).
For the compound `FC1(c2nc(C3=NOC(c4ccccc4)C3)cs2)CCNCC1` (stereo not shown) [XII-1, 4-fluoro-4-[4-(5-phenyl-4,5-dihydro-1,2-oxazol-3-yl)-1,3-thiazol-2-yl]piperidinium chloride], the chromatographic logP stood at 1.17. `CC(C)(C)OC(=O)N1CCC(c2nc(-c3cc(-c4ccccc4C=O)on3)cs2)CC1` [X-b-1, tert-butyl 4-{4-[5-(2-formylphenyl)-1,2-oxazol-3-yl]-1,3-thiazol-2-yl}piperidine-1-carboxylate] displayed a chromatographic logP of 4.1. The same measure, in the same setting: to `CS(=O)(=O)Nc1ccccc1C1CC(c2csc(C3CCNCC3)n2)=NO1` (stereo not shown) [XII-4, 4-[4-(5-{2-[(Methylsulphonyl)amino]phenyl}-4,5-dihydro-1,2-oxazol-3-yl)-1,3-thiazol-2-yl]piperidinium chloride] belongs 0.72.

The same series, now with this note: pH 2.7, log P (pH2.7).
As for `c1ccc(C2CC(c3csc(C4CCNCC4)n3)=NO2)c(OCC2CCCCC2)c1` (stereo not shown) [XII-7, 4-(4-{5-[2-(Cyclohexylmethoxy)phenyl]-4,5-dihydro-1,2-oxazol-3-yl}-1,3-thiazol-2-yl)piperidinium chloride], the chromatographic logP amounted to 1.9. Regarding `CC(C)(C)OC(=O)N1CCC(c2nc(C3=NOC(c4ccccc4[N+](=O)[O-])C3)cs2)CC1` (stereo not shown) [X-a-6, tert-Butyl 4-{4-[5-(2-nitrophenyl)-4,5-dihydro-1,2-oxazol-3-yl]-1,3-thiazol-2-yl}piperidine-1-carboxylate], the chromatographic logP is 4.01.

The series is the same for the next values; noted with them: pH 2.7, logp [b].
The compound `O=C(NC1CC1)c1ccccc1C1CC(c2csc(C3CCN(C(=O)Cn4nc(C(F)F)cc4C(F)F)CC3)n2)=NO1` (stereo not shown) [I-27, 2-{3-[2-(1-{[3,5-Bis(difluoromethyl)-1H-pyrazol-1-yl]acetyl}piperidin-4-yl)-1,3-thiazol-4-yl]-4,5-dihydro-1,2-oxazol-5-yl}-N-cyclopropylbenzamide] had a chromatographic logP of 2.64. `COCCOc1cccc(C2CC(c3csc(C4CCN(C(=O)Cn5nc(C(F)F)cc5C(F)F)CC4)n3)=NO2)c1` (stereo not shown) [I-28, 2-[3,5-Bis(difluoromethyl)-1H-pyrazol-1-yl]-1-[4-(4-{5-[3-(2-methoxyethoxy)phenyl]-4,5-dihydro-1,2-oxazol-3-yl}-1,3-thiazol-2-yl)piperidin-1-yl]ethanone] had a chromatographic logP of 3.03. Compound `COCCOc1cccc(Cl)c1C1CC(c2csc(C3CCN(C(=O)Cn4nc(C(F)F)cc4C(F)F)CC3)n2)=NO1` (stereo not shown) [I-50, 2-[3,5-bis(difluoromethyl)-1H-pyrazol-1-yl]-1-[4-(4-{5-[2-chloro-6-(2-methoxyethoxy)phenyl]-4,5-dihydro-1,2-oxazol-3-yl}-1,3-thiazol-2-yl)piperidin-1-yl]ethanone] registered a chromatographic logP of 3.36. The compound `COC(=O)c1ccccc1C1CC(c2csc(C3CCN(C(=O)Cn4nc(C(F)F)cc4C(F)F)CC3)n2)=NO1` (stereo not shown) [I-43, Methyl 2-{3-[2-(1-{[3,5-bis(difluoromethyl)-1H-pyrazol-1-yl]acetyl}piperidin-4-yl)-1,3-thiazol-4-yl]-4,5-dihydro-1,2-oxazol-5-yl}benzoate] came in with a chromatographic logP of 3.32. The chromatographic logP values of the last two compounds are within 0.2 log units of each other.

Compound `COC(=O)c1ccccc1C1CC(c2nc(C3CCN(C(=O)Cn4nc(C(F)F)cc4C(F)F)CC3)sc2Cl)=NO1` (stereo not shown) [I-46, methyl 2-{3-[2-(1-{[3,5-bis(difluoromethyl)-1H-pyrazol-1-yl]acetyl}piperidin-4-yl)-5-chloro-1,3-thiazol-4-yl]-4,5-dihydro-1,2-oxazol-5-yl}benzoate] gave a chromatographic logP of 3.98. Still for that read-out and setting: with `C=C(C)COc1ccccc1C1CC(c2csc(C3CCN(C(=O)Cn4nc(C(F)F)cc4C(F)F)CC3)n2)=NO1` (stereo not shown) [I-18, 2-[3,5-bis(difluoromethyl)-1H-pyrazol-1-yl]-1-{4-[4-(5-{2-[(2-methylprop-2-en-1-yl)oxy]phenyl}-4,5-dihydro-1,2-oxazol-3-yl)-1,3-thiazol-2-yl]piperidin-1-yl}ethanone] the figure was 3.96.

Staying with this series, now noted: pH 7.8, logp [c].
In turn, `COCCOc1cccc(C2CC(c3csc(C4CCN(C(=O)Cn5nc(C(F)F)cc5C(F)F)CC4)n3)=NO2)c1` (stereo not shown) [I-28, 2-[3,5-Bis(difluoromethyl)-1H-pyrazol-1-yl]-1-[4-(4-{5-[3-(2-methoxyethoxy)phenyl]-4,5-dihydro-1,2-oxazol-3-yl}-1,3-thiazol-2-yl)piperidin-1-yl]ethanone] gave a chromatographic logP of 3.04. Same read-out and setting: to `C=C(C)COc1ccccc1C1CC(c2csc(C3CCN(C(=O)Cn4nc(C(F)F)cc4C(F)F)CC3)n2)=NO1` (stereo not shown) [I-18, 2-[3,5-bis(difluoromethyl)-1H-pyrazol-1-yl]-1-{4-[4-(5-{2-[(2-methylprop-2-en-1-yl)oxy]phenyl}-4,5-dihydro-1,2-oxazol-3-yl)-1,3-thiazol-2-yl]piperidin-1-yl}ethanone] belongs 3.92.
